Experimental data taken from paper PMC4052943 (BioMed Research International, 2014).
Read-outs that look alike come from different tables or passages of the source.

Experiments:
[1] = system: Salmonella typhimurium TA98; assay: Ames antimutagenicity assay (preincubation); details: for inhibition at 50 µM / inhibition at 100 µM / inhibition at 250 µM / inhibition at 500 µM: Salmonella enterica, TYPHIMURIUM;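 for all read-outs here: test compound and mutagen preincubated 30 min at 37°C before adding bacteria, then His+ revertant colonies counted after 48 h plating, inhibition relative to mutagen-only versus negative-control revertants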
Protocol: (§1) In the preincubation experiment, test compounds and mutagen, each having a volume of 0.1 mL of varying concentrations, were preincubated at 37°C for 30 min and then 0.1 mL of 1 × 10^7 CFU/mL density of the bacterial culture was added, followed by the addition of 2.5 mL of top agar at 45°C (containing 0.5% NaCl and 0.6% agar) supplemented with 0.5 mM histidine-biotin. […] The combined solutions were vortexed and poured onto minimal glucose plates (40% glucose solution and Vogel Bonner medium). The plates were incubated at 37°C for 48 h and the numbers of histidine-independent revertants colonies were scored.
(§2) Survival of the bacteria was routinely monitored for each experiment. Parallel controls were run with compounds alone at all concentrations to test the possible toxicity. The concentrations of the test samples for investigating the antimutagenicity were 50, 100, 200, and 500 μM. […] All the test samples and mutagens were dissolved in DMSO (final conc., 0.01%). […] Plates were set up in triplicate for each concentration and the entire experiment was repeated three times. Inhibition of mutagenicity was expressed as percentage decrease of reverse mutation and calculated as (1) Percent inhibition=[(a−b)/(a−c)]×100, where a = number of histidine revertants induced by mutagen, b = number of histidine revertants induced by mutagen in the presence of test compound, and c = number of revertants induced in negative control.

[2] = system: Salmonella typhimurium TA97a; details: TA 97a
Protocol: as §1, §2

[3] = system: Salmonella typhimurium TA98
Protocol: as §1, §2

[4] = system: Salmonella typhimurium TA97a; assay: Ames antimutagenicity assay (preincubation); details: Salmonella enterica, TYPHIMURIUM;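 note: compound and mutagen preincubated together 30 min at 37 °C before adding bacteria, then plated on minimal glucose agar for 48 h and His+ revertant colonies counted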
Protocol: as §1, §2

## O=C1O[C@H]2[C@@H]3OC(=O)c4cc(O)c(O)c(O)c4-c4c(O)c(O)c5oc(=O)c6c(c(O)c(O)c7oc(=O)c4c5c76)-c4c(cc(O)c(O)c4O)C(=O)OC[C@H]3OC(O)[C@@H]2OC(=O)c2cc(O)c(O)c(O)c2-c2c1cc(O)c(O)c2O (mixture of isomers) [Punicalagin]
[1]; read-out: % inhibition of mutagenicity, TA 98, 50 μM + 2AF, S9
  inhibition at 50 µM: 20.5%
[1]; read-out: % inhibition of mutagenicity, TA 98, 50 μM + BP, S9
  inhibition at 50 µM: 22.1%
[1]; read-out: % inhibition of mutagenicity, TA 98, 50 μM + MMS, no S9
  inhibition at 50 µM: 29.4%
[1]; read-out: % inhibition of mutagenicity, TA 98, 100 μM + 2AF, S9
  inhibition at 100 µM: 37.5%
[1]; read-out: % inhibition of mutagenicity, TA 98, 100 μM + BP, S9
  inhibition at 100 µM: 46.6%
[1]; read-out: % inhibition of mutagenicity, TA 98, 100 μM + MMS, no S9
  inhibition at 100 µM: 46.3%
[1]; read-out: % inhibition of mutagenicity, TA 98, 100 μM + NaN3, no S9
  inhibition at 100 µM: 30%
[1]; read-out: % inhibition of mutagenicity, TA 98, 250 μM + BP, S9
  inhibition at 250 µM: 74.8%
[1]; read-out: % inhibition of mutagenicity, TA 98, 250 μM + MMS, no S9
  inhibition at 250 µM: 59.2%
[1]; read-out: % inhibition of mutagenicity, TA 98, 250 μM + NaN3, no S9
  inhibition at 250 µM: 52.2%
[1]; read-out: % inhibition of mutagenicity, TA 98, 500 μM + 2AF, S9
  inhibition at 500 µM: 81.4%
[1]; read-out: % inhibition of mutagenicity, TA 98, 500 μM + BP, S9
  inhibition at 500 µM: 78.8%
[1]; read-out: % inhibition of mutagenicity, TA 98, 500 μM + MMS, no S9
  inhibition at 500 µM: 71%
[1]; read-out: % inhibition of mutagenicity, TA 98, 500 μM + NaN3, no S9
  inhibition at 500 µM: 65.3%
[1]; TA 98, 50 μM + 2AF, S9
  Number of His+ revertants colonies/plate: 210.3 ± 10.7 colonies/plate
[1]; TA 98, 50 μM + BP, S9
  Number of His+ revertants colonies/plate: 138.0 ± 8.7 colonies/plate
[1]; TA 98, 50 μM + MMS, no S9
  Number of His+ revertants colonies/plate: 50.3 ± 1.8 colonies/plate
[1]; TA 98, 100 μM + 2AF, S9
  Number of His+ revertants colonies/plate: 172.3 ± 12.0 colonies/plate
[1]; TA 98, 100 μM + BP, S9
  Number of His+ revertants colonies/plate: 105.3 ± 9.0 colonies/plate
[1]; TA 98, 100 μM + MMS, no S9
  Number of His+ revertants colonies/plate: 45.3 ± 2.0 colonies/plate
[1]; TA 98, 100 μM + NaN3, no S9
  Number of His+ revertants colonies/plate: 47.3 ± 1.8 colonies/plate
[1]; TA 98, 250 μM + BP, S9
  Number of His+ revertants colonies/plate: 65.0 ± 6.8 colonies/plate
[1]; TA 98, 250 μM + MMS, no S9
  Number of His+ revertants colonies/plate: 39.7 ± 2.0 colonies/plate
[1]; TA 98, 250 μM + NaN3, no S9
  Number of His+ revertants colonies/plate: 40.7 ± 2.6 colonies/plate
[1]; TA 98, 500 μM + 2AF, S9
  Number of His+ revertants colonies/plate: 65.3 ± 4.1 colonies/plate
[1]; TA 98, 500 μM + BP, S9
  Number of His+ revertants colonies/plate: 52.7 ± 4.3 colonies/plate
[1]; TA 98, 500 μM + MMS, no S9
  Number of His+ revertants colonies/plate: 35.0 ± 2.1 colonies/plate
[1]; TA 98, 500 μM + MMS, no S9, 500 µM
  % inhibition of mutagenicity: 70.9%
[1]; TA 98, 500 μM + NaN3, no S9
  Number of His+ revertants colonies/plate: 36.0 ± 1.7 colonies/plate
[2]; 50 μM alone (negative control), 2AF tables
  Number of His+ revertants colonies/plate: 132.3 ± 8.8 colonies/plate
[2]; 50 μM alone (negative control), BP tables
  Number of His+ revertants colonies/plate: 132.3 ± 8.8 colonies/plate
[2]; 50 μM alone (negative control), MMS tables
  Number of His+ revertants colonies/plate: 141.3 ± 5.2 colonies/plate
[2]; 50 μM alone (negative control), NaN3 tables
  Number of His+ revertants colonies/plate: 141.3 ± 5.2 colonies/plate
[2]; 100 μM alone (negative control), 2AF tables
  Number of His+ revertants colonies/plate: 158.0 ± 7.4 colonies/plate
[2]; 100 μM alone (negative control), BP tables
  Number of His+ revertants colonies/plate: 158.0 ± 7.4 colonies/plate
[2]; 100 μM alone (negative control), MMS tables
  Number of His+ revertants colonies/plate: 153.7 ± 9.2 colonies/plate
[2]; 100 μM alone (negative control), NaN3 tables
  Number of His+ revertants colonies/plate: 153.7 ± 9.2 colonies/plate
[2]; 250 μM alone (negative control), 2AF tables
  Number of His+ revertants colonies/plate: 165.7 ± 10.9 colonies/plate
[2]; 250 μM alone (negative control), BP tables
  Number of His+ revertants colonies/plate: 165.7 ± 10.9 colonies/plate
[2]; 250 μM alone (negative control), MMS tables
  Number of His+ revertants colonies/plate: 158.3 ± 7.1 colonies/plate
[2]; 250 μM alone (negative control), NaN3 tables
  Number of His+ revertants colonies/plate: 158.3 ± 7.1 colonies/plate
[2]; 500 μM alone (negative control), 2AF tables
  Number of His+ revertants colonies/plate: 188.0 ± 9.5 colonies/plate
[2]; 500 μM alone (negative control), BP tables
  Number of His+ revertants colonies/plate: 188.0 ± 9.5 colonies/plate
[2]; 500 μM alone (negative control), MMS tables
  Number of His+ revertants colonies/plate: 174.0 ± 6.4 colonies/plate
[2]; 500 μM alone (negative control), NaN3 tables
  Number of His+ revertants colonies/plate: 174.0 ± 6.4 colonies/plate
[3]; Salmonella typhimurium
  Number of His+ revertants colonies/plate: 31.0 ± 1.7 colonies/plate
[3]; TA 98, 50 μM alone (negative control), 2AF tables
  Number of His+ revertants colonies/plate: 40.7 ± 2.9 colonies/plate
[3]; TA 98, 50 μM alone (negative control), BP tables
  Number of His+ revertants colonies/plate: 40.7 ± 2.9 colonies/plate
[3]; TA 98, 50 μM alone (negative control), MMS tables
  Number of His+ revertants colonies/plate: 42.3 ± 1.8 colonies/plate
[3]; TA 98, 50 μM alone (negative control), NaN3 tables
  Number of His+ revertants colonies/plate: 42.3 ± 1.8 colonies/plate
[3]; TA 98, 100 μM alone (negative control), 2AF tables
  Number of His+ revertants colonies/plate: 36.3 ± 1.8 colonies/plate
[3]; TA 98, 100 μM alone (negative control), BP tables
  Number of His+ revertants colonies/plate: 36.3 ± 1.8 colonies/plate
[3]; TA 98, 100 μM alone (negative control), MMS tables
  Number of His+ revertants colonies/plate: 35.7 ± 1.8 colonies/plate
[3]; TA 98, 100 μM alone (negative control), NaN3 tables
  Number of His+ revertants colonies/plate: 35.7 ± 1.8 colonies/plate
[3]; TA 98, 250 μM alone (negative control), BP tables
  Number of His+ revertants colonies/plate: 31.0 ± 1.7 colonies/plate
[3]; TA 98, 250 μM alone (negative control), MMS tables
  Number of His+ revertants colonies/plate: 30.0 ± 1.2 colonies/plate
[3]; TA 98, 250 μM alone (negative control), NaN3 tables
  Number of His+ revertants colonies/plate: 30.0 ± 1.2 colonies/plate
[3]; TA 98, 500 μM alone (negative control), 2AF tables
  Number of His+ revertants colonies/plate: 22.3 ± 1.8 colonies/plate
[3]; TA 98, 500 μM alone (negative control), BP tables
  Number of His+ revertants colonies/plate: 22.3 ± 1.8 colonies/plate
[3]; TA 98, 500 μM alone (negative control), MMS tables
  Number of His+ revertants colonies/plate: 27.3 ± 2.0 colonies/plate
[3]; TA 98, 500 μM alone (negative control), NaN3 tables
  Number of His+ revertants colonies/plate: 27.3 ± 2.0 colonies/plate
[4]; read-out: % inhibition of mutagenicity, TA 97a, 50 μM + 2AF, S9
  inhibition at 50 µM: 15.7%
[4]; read-out: % inhibition of mutagenicity, TA 97a, 50 μM + BP, S9
  inhibition at 50 µM: 15.1%
[4]; read-out: % inhibition of mutagenicity, TA 97a, 50 μM + MMS, no S9
  inhibition at 50 µM: 10.2%
